# Experimental data taken from patent US6001882A (priority 1997, dated 1999).
# Several values for one entry are separate records, joined by “and”; a condition that tells them apart may be missing. Identical values can stand only once. Like-named read-outs stand apart in the source and are kept apart here.
# Key:
# normal PBMC = assay: Lymphocyte proliferation (3H-TdR incorporation), ConA-stimulated PBMC from normal human subject; assay type: cell-based; settings: for IC50: read-out: IC50 of ConA-induced cell proliferation; for IC100: 72 h, read-out: concentration at which proliferation was completely inhibited
# From the text: In two of the types of lymphocytes, the mitogen, ConA, was used to induce proliferation, as described (Fox et al., 1993, Cell. Immunol. 150:45-58). The third type of lymphocytes used in this example proliferated actively in vitro without the need for mitogenic stimulation. The three types of lymphocytes which were used in this example were: PBMC obtained from a normal human subject and stimulated with ConA; PBMC, including malignant CD4+ T-lymphocytes, obtained from a human subject having CTCL and stimulated with ConA; and PBMC obtained from a normal human subject, which PBMC were exposed to Epstein-Barr virus (EBV) after being obtained from the subject, to produce transformed lymphocytes. It is known that EBV-transformed B-lymphocytes proliferate actively in vitro (Polack, 1996, Proc. Natl. Acad. Sci. U.S.A. 93:10411-10416; Longnecker, 1994, Leukemia 8:546-550).
# Peripheral blood mononuclear cells (PBMC) were obtained by separating them from whole blood, using Ficoll-Paque separation techniques and media (Boyum, 1964, Nature 793-794). After they were obtained, PBMC were resuspended in RPMI 1640 medium, which comprised 10% (v/v) fetal bovine serum (GIBCO, Grand Island, N.Y.), and were distributed into the wells of 96-well microtiter plates. PBMC transformed using EBV were made as described (Neitzel, 1986, Hum. Gen. 73:320-326)
# This stock solution stored at 4° C. in the dark. A stock solution comprising 462.5 μM 8-methoxypsoralen (8-MOP) was prepared in 2% (v/v) benzyl alcohol. 8-MOP was obtained from Sigma (St. Louis, Mo.).
# In cultures of transformed leukocytes in which 8-MOP was used, the concentrations of 8-MOP which were used were 92.5 μM, 18.5 μM, 3.7 μM, 0.74 μM, 0.15 μM, and 0.030 μM. Thereafter, ConA was then added to preselected wells to achieve a final concentration of 10 μg/ml of ConA in those wells.
# Following preparation of the microtiter culture plates, preselected plates were illuminated with fluorescent visible light for 10-30 minutes, using four fluorescent bulbs (type F15T8CW, TFC Inc., Taiwan) spaced at a distance of 9 cm above the plates. Other preselected plates were illuminated with 0.5-2 Joules per square centimeter UV-A light using a UV-A light box containing 8 UVAR 06-91 bulbs. Still other preselected plates were not exposed to light. The covers of plates which were exposed to light were left in place during illumination.
# Following illumination, plates which had been illuminated were placed into a dark incubator which was maintained at 37° C. Non-illuminated plates were placed into the incubator immediately after preparation. All plates were incubated for seventy-two hours. During the final eighteen hours of incubation, tritiated thymidine (^3 H-TdR) was added to each well of each plate. No extraordinary precautions were used to prevent light exposure during the addition of ^3 H-TdR.
# Lymphocyte proliferation was assessed by measuring the extent of incorporation of ^3 H-TdR into newly synthesized DNA within the cells at the end of the seventy-two hour incubation period, as described (Fox, 1993, Cell. Immunol. 150:45-58).
# [1] = test system: PBMC obtained from a patient having CTCL; assay: Induction of apoptosis of CTCL PBMC, TUNEL assay (Example 2); assay type: cell-based, human; settings: for percentage of PBMC which underwent apoptosis: 10 μM hypericin or 100 ng/ml 8-MOP
# Protocol: The processing of neoplastic leukocytes, the media and stock solutions used, and the procedures which were used were the same as those presented in Example 1, except as described below.
# Cultures were illuminated using fluorescent light for 20 minutes, illuminated with 2 J/cm^2 UV-A light or were not illuminated. After 24 and 48 hours, apoptosis was measured using a TUNEL assay, as described (Sgonc, 1994 Trends Gen. 10:41-42). The TUNEL assay specifically labels free ends of internucleosomally-cleaved DNA--the hallmark of the apoptotic process.
# [2] = test system: PBMC from a patient to whom 8-MOP had been administered; assay: ConA-induced proliferation of PBMC from a patient to whom 8-MOP had been administered, visible light; assay type: cell-based, human; settings: 20 min
# Protocol: PBMC from a patient to whom 8-MOP had been administered were illuminated for 20 minutes using the bank of visible fluorescent lights used in the experiments described in this example. Proliferation of these cells in response to ConA was measured.
# [3] = cited from earlier work
# [4] = test system: xenografted carcinoma cells; settings: intraperitoneal; local illumination of skin; cited from earlier work
# [5] = photoreaction; cited from earlier work
# leukocytes = settings: photoactivated; cited from earlier work
# glioma cells = settings: in vitro; cited from earlier work
# protein kinase = settings: cited from earlier work
# [6] = Absorbance spectrum / photoactivation wavelength; assay type: physicochemical; settings: 20 μM hypericin in phosphate-buffered saline
# From the text: Absorbance maxima which were observed included maxima at 327 nm, 563 nm, and 603 nm.
# leukemia cells = settings: cited from earlier work
# enveloped virus = settings: hypericin photoactivated prior to treatment of virus; cited from earlier work
# viruses = settings: photoactivated; in vitro; cited from earlier work
# [7] = Homo sapiens, PBMC, 10 min, visible light, 10 min
# [8] = Homo sapiens, PBMC, 20 min, visible light, 20 min
# [9] = Homo sapiens, PBMC, UV-A, 0.5 J/sc
# [10] = Homo sapiens, PBMC, UV-A, 1 J/sc
# [11] = Homo sapiens, PBMC, not illuminated, benzyl alcohol vehicle itself inhibitory at highest concentrations
smiles,measurement,setting,value
"COc1c2occc2cc2ccc(=O)oc12 [8-MOP, 8-methoxypsoralen]",IC50,normal PBMC; [7],33500 nM
same,IC50,normal PBMC; [8],33500 nM
same,IC50,"normal PBMC; Homo sapiens, PBMC, 0.5 h, visible light, 30 min",33500 nM
same,IC50,normal PBMC; [9],960 nM
same,IC50,normal PBMC; [10],170 nM
same,IC50,"normal PBMC; Homo sapiens, PBMC, UV-A, 2 J/sc",150 nM
same,IC50,normal PBMC; [11],33500 nM
same,percentage of PBMC which underwent apoptosis,"[1]; 24 h, UV-A 2 J/cm^2",87 percentage
same,percentage of PBMC which underwent apoptosis,"[1]; 24 h, no light",11.5 percentage
same,percentage of PBMC which underwent apoptosis,"[1]; 24 h, visible light 20 min",32 percentage
same,percentage of PBMC which underwent apoptosis,"[1]; 48 h, UV-A 2 J/cm^2",94 percentage
same,percentage of PBMC which underwent apoptosis,"[1]; 48 h, no light",21 percentage
same,percentage of PBMC which underwent apoptosis,"[1]; 48 h, visible light 20 min",48 percentage
same,"potency as inducer of apoptosis, hypericin vs 8-MOP",[1]; UV-A light,approximately equally potent inducers of apoptosis of malignant leukocytes
same,illumination-dependent inhibition of proliferation,[2],No illumination-dependent inhibition of proliferation
"Cc1cc(O)c2c(=O)c3c(O)cc(O)c4c5c(O)cc(O)c6c(=O)c7c(O)cc(C)c8c1c2c(c34)c(c78)c65 [hypericin, 1,3,4,6,8,13-Hexahydroxy-10,11,dimethyl-phenanthro[1,10,9,8,-opqra]perylene-7,14-dione]",presence in skin,[3]; after systemic administration,demonstrated in skin after systemic administration
same,presence in blood plasma,[3]; following administration to mammals,remains in the blood plasma
same,half life,[3]; in vivo,20 to 24 h
same,inhibition of proliferation of xenografted carcinoma cells,[4],inhibited proliferation of these carcinoma cells
same,singlet oxygen production,[5],produce singlet oxygen
same,IC50,normal PBMC; [7],760 nM
same,IC50,normal PBMC; [8],110 nM
same,IC100,"normal PBMC; Homo sapiens, PBMC, visible light, 10 min",3.2 µM
same,IC100,"normal PBMC; Homo sapiens, PBMC, visible light, 20 min",0.64 µM
same,IC50,normal PBMC; [9],4600 nM
same,IC50,normal PBMC; [10],2100 nM
same,IC50,normal PBMC; [11],22000 nM
same,inhibition of mitogen-induced proliferation,normal PBMC; normal PBMC,inhibits mitogen-induced proliferation of PBMC
same,IC50,"normal PBMC; not illuminated, benzyl alcohol vehicle itself inhibitory at highest concentrations",23200 nM
same,effect of 30 min illumination on inhibition of proliferation,"normal PBMC; visible light 30 min, relative to shorter illumination",did not significantly increase inhibition of cell proliferation
same,IC50,"normal PBMC; visible light, 10 min",680 nM and 800 nM
same,IC50,"normal PBMC; visible light, 20 min",180 nM and 100 nM
same,effect on leukocytes,leukocytes,no effect of hypericin on leukocytes
same,percentage of PBMC which underwent apoptosis,"[1]; 24 h, UV-A 2 J/cm^2",88 percentage
same,percentage of PBMC which underwent apoptosis,"[1]; 24 h, no light",11.5 percentage
same,percentage of PBMC which underwent apoptosis,"[1]; 24 h, visible light 20 min",97 percentage
same,percentage of PBMC which underwent apoptosis,"[1]; 48 h, UV-A 2 J/cm^2",96 percentage
same,percentage of PBMC which underwent apoptosis,"[1]; 48 h, no light",18 percentage
same,percentage of PBMC which underwent apoptosis,"[1]; 48 h, visible light 20 min",91 percentage
same,"potency as inducer of apoptosis, hypericin vs 8-MOP",[1]; UV-A light,approximately equally potent inducers of apoptosis of malignant leukocytes
same,"potency as inducer of apoptosis, hypericin vs 8-MOP",[1]; visible light,much more potent inducer of apoptosis of malignant leukocytes than 8-MOP
same,effect of light on antiproliferative effects,glioma cells,only slightly enhance hypericin's antiproliferative effects on glioma cells
same,protein kinase inhibition,protein kinase,inhibits protein kinase activity
same,absorbance maximum,[6],327 nm and 563 nm and 603 nm
same,inhibition of proliferation,leukemia cells,incapable of inhibiting proliferation of leukemia cells
same,effect on enveloped virus,enveloped virus,"reduce the infectious titer of the enveloped virus, but did not inactivate the virus"
same,inactivation of viruses in blood compositions,viruses,could be used to inactivate viruses in blood compositions in vitro
